# Assay results reported in patent US11717508B2, “Compounds, compositions, and methods for inhibiting bacterial growth” (priority 2016, dated 2023).
# Test system: DosRST regulon
# Assay type: cell-based
# [1] = Rv2626c, WT Mtb treated with HC102A compared to DMSO
# [2] = Rv2627c, WT Mtb treated with HC102A compared to DMSO
# [3] = Rv2628, WT Mtb treated with HC102A compared to DMSO
# [4] = Rv2629, WT Mtb treated with HC102A compared to DMSO
# [5] = Rv2630, WT Mtb treated with HC102A compared to DMSO
# [6] = Rv2631, WT Mtb treated with HC102A compared to DMSO
# [7] = Rv3083, WT Mtb treated with HC102A compared to DMSO
# [8] = Rv3084 lipR, WT Mtb treated with HC102A compared to DMSO
# [9] = Rv3085, WT Mtb treated with HC102A compared to DMSO
# [10] = Rv3127, WT Mtb treated with HC102A compared to DMSO
# [11] = Rv3130c, WT Mtb treated with HC102A compared to DMSO
# [12] = Rv3131, WT Mtb treated with HC102A compared to DMSO
# [13] = Rv3132c, WT Mtb treated with HC102A compared to DMSO
# [14] = Rv3133c, WT Mtb treated with HC102A compared to DMSO
structure (smiles),measurement,setting,value
"C[C@@H]1CC(C)(C)C[C@]2(C1)NC(=O)NC2=O (racemic) [HC102A, 7,7,9-trimethyl-1,3-diazaspiro[4.5]decane-2,4-dione]","log2 Fold change, gene MT2700","Rv2625c, WT Mtb treated with HC102A compared to DMSO",−5.149
same,"Counts per million (CPM) WT_HC102A1, gene MT2700","Rv2625c, WT Mtb treated with HC102A, replicate 1",146.1 CPM
same,"Counts per million (CPM) WT_HC102A2, gene MT2700","Rv2625c, WT Mtb treated with HC102A, replicate 2",111.9 CPM
same,"Fold change, gene MT2701",[1],0.04398
same,"log2 Fold change, gene MT2701",[1],−4.507
same,"Counts per million (CPM) WT_HC102A1, gene MT2701","Rv2626c, WT Mtb treated with HC102A, replicate 1",447.5 CPM
same,"Counts per million (CPM) WT_HC102A2, gene MT2701","Rv2626c, WT Mtb treated with HC102A, replicate 2",554.5 CPM
same,"Fold change, gene MT2702",[2],0.01981
same,"log2 Fold change, gene MT2702",[2],−5.658
same,"Counts per million (CPM) WT_HC102A1, gene MT2702","Rv2627c, WT Mtb treated with HC102A, replicate 1",101.3 CPM
same,"Counts per million (CPM) WT_HC102A2, gene MT2702","Rv2627c, WT Mtb treated with HC102A, replicate 2",156.7 CPM
same,"Fold change, gene MT2703",[3],0.03499
same,"log2 Fold change, gene MT2703",[3],−4.837
same,"Counts per million (CPM) WT_HC102A1, gene MT2703","Rv2628, WT Mtb treated with HC102A, replicate 1",20.64 CPM
same,"Counts per million (CPM) WT_HC102A2, gene MT2703","Rv2628, WT Mtb treated with HC102A, replicate 2",33.42 CPM
same,"Fold change, gene MT2704",[4],0.09873
same,"log2 Fold change, gene MT2704",[4],−3.34
same,"Counts per million (CPM) WT_HC102A1, gene MT2704","Rv2629, WT Mtb treated with HC102A, replicate 1",540.6 CPM
same,"Counts per million (CPM) WT_HC102A2, gene MT2704","Rv2629, WT Mtb treated with HC102A, replicate 2",660.1 CPM
same,"Fold change, gene MT2705",[5],0.0994
same,"log2 Fold change, gene MT2705",[5],−3.331
same,"Counts per million (CPM) WT_HC102A1, gene MT2705","Rv2630, WT Mtb treated with HC102A, replicate 1",71.28 CPM
same,"Counts per million (CPM) WT_HC102A2, gene MT2705","Rv2630, WT Mtb treated with HC102A, replicate 2",56.05 CPM
same,"Fold change, gene MT2707",[6],0.1179
same,"log2 Fold change, gene MT2707",[6],−3.085
same,"Counts per million (CPM) WT_HC102A1, gene MT2707","Rv2631, WT Mtb treated with HC102A, replicate 1",110.9 CPM
same,"Counts per million (CPM) WT_HC102A2, gene MT2707","Rv2631, WT Mtb treated with HC102A, replicate 2",72.59 CPM
same,"Fold change, gene MT3168",[7],0.2851
same,"log2 Fold change, gene MT3168",[7],−1.81
same,"Counts per million (CPM) WT_HC102A1, gene MT3168","Rv3083, WT Mtb treated with HC102A, replicate 1",100.3 CPM
same,"Counts per million (CPM) WT_HC102A2, gene MT3168","Rv3083, WT Mtb treated with HC102A, replicate 2",66.84 CPM
same,"Fold change, gene MT3169",[8],0.2724
same,"log2 Fold change, gene MT3169",[8],−1.876
same,"Counts per million (CPM) WT_HC102A1, gene MT3169","Rv3084 lipR, WT Mtb treated with HC102A, replicate 1",16.74 CPM
same,"Counts per million (CPM) WT_HC102A2, gene MT3169","Rv3084 lipR, WT Mtb treated with HC102A, replicate 2",9.205 CPM
same,"Fold change, gene MT3170",[9],0.3224
same,"log2 Fold change, gene MT3170",[9],−1.633
same,"Counts per million (CPM) WT_HC102A1, gene MT3170","Rv3085, WT Mtb treated with HC102A, replicate 1",11.79 CPM
same,"Counts per million (CPM) WT_HC102A2, gene MT3170","Rv3085, WT Mtb treated with HC102A, replicate 2",8.619 CPM
same,"Fold change, gene MT3212",[10],0.0633
same,"log2 Fold change, gene MT3212",[10],−3.982
same,"Counts per million (CPM) WT_HC102A1, gene MT3212","Rv3127, WT Mtb treated with HC102A, replicate 1",690.1 CPM
same,"Counts per million (CPM) WT_HC102A2, gene MT3212","Rv3127, WT Mtb treated with HC102A, replicate 2",898.2 CPM
same,"Fold change, gene MT3216",[11],0.05498
same,"log2 Fold change, gene MT3216",[11],−4.185
same,"Counts per million (CPM) WT_HC102A1, gene MT3216","Rv3130c, WT Mtb treated with HC102A, replicate 1","1,395.93 CPM"
same,"Counts per million (CPM) WT_HC102A2, gene MT3216","Rv3130c, WT Mtb treated with HC102A, replicate 2","1,787.99 CPM"
same,"Fold change, gene MT3217",[12],0.03013
same,"log2 Fold change, gene MT3217",[12],−5.053
same,"Counts per million (CPM) WT_HC102A1, gene MT3217","Rv3131, WT Mtb treated with HC102A, replicate 1",415.6 CPM
same,"Counts per million (CPM) WT_HC102A2, gene MT3217","Rv3131, WT Mtb treated with HC102A, replicate 2",421.7 CPM
same,"Fold change, gene MT3218",[13],0.0994
same,"log2 Fold change, gene MT3218",[13],−3.331
same,"Counts per million (CPM) WT_HC102A1, gene MT3218","Rv3132c, WT Mtb treated with HC102A, replicate 1",439 CPM
same,"Counts per million (CPM) WT_HC102A2, gene MT3218","Rv3132c, WT Mtb treated with HC102A, replicate 2",364.8 CPM
same,"Fold change, gene MT3219",[14],0.07283
same,"log2 Fold change, gene MT3219",[14],−3.779
